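Exposure lasted 48 hours, with cells grown in 96-well plates and compounds tested at five concentrations. GI50 = concentration required for 50% inhibition of growth. TGI: total growth inhibition.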
Assays:
Assay in all cases: DTP human tumour cell line panel, 48 h
[1] = system: NCI-H23 lung
[2] = system: NCI-H226 lung
[3] = system: HCT-15 colon
[4] = system: UACC-257 melanoma
[5] = system: SF-268 CNS
[6] = system: KM12 colon
[7] = system: HOP-62 NSCLC
[8] = system: NCI-H460 lung
[9] = system: SK-MEL-2 melanoma
[10] = system: RXF 393 renal

Row | Compound | GI50 [1] [µM] | TGI [1] [µM] | GI50 [2] [µM] | TGI [2] [µM] | GI50 [3] [µM] | TGI [3] [µM] | GI50 [4] [µM] | TGI [4] [µM] | GI50 [5] [µM] | TGI [5] [µM] | GI50 [6] [µM] | TGI [6] [µM] | GI50 [7] [µM] | TGI [7] [µM] | GI50 [8] [µM] | TGI [8] [µM] | GI50 [9] [µM] | TGI [9] [µM] | GI50 [10] [µM] | TGI [10] [µM]
1 | CCOC(=O)C1=C(N)Oc2c(sc3c(C)cccc23)C1c1ccc(F)cc1 (centres undefined) | 0.808 | 14.3 | 0.579 | 10.6 | 0.415 | 10.9 | 12.6 | 27.7 | 1.61 | 19.4 | 0.464 | 13.6 | 0.618 | 20.1 | 0.415 | 11 | 5.39 | 24.8 | 0.242 | 0.639
2 | COc1ccc(-c2cc(Nc3ccnc(N4CCOCC4)n3)on2)cc1 | 0.516 | 29.1 | 0.751 | 9.82 | 0.0645 | 13 | 1.48 | 11.4 | 1.85 | 18.1 | 0.0893 | 12.3 | 0.372 | 16.8 | 0.24 | 10.4 | 0.457 | 29.5 | 0.16 | 0.564
3 | COc1ccc(/C=C/c2cnccn2)cc1OC |  | > 10 |  | > 10 |  | > 10 |  | > 10 |  | > 10 |  | > 10 |  | > 10 |  | > 10 |  | > 10 |  | > 10
4 | Cc1ccc2[c](c1)[Sn]([c]1ccccc1)([c]1ccccc1)[c]1cc(C)ccc1N2C | 41 | > 100 | 49 | > 100 | 36.9 | > 100 | 57.8 | > 100 | 48.4 | > 100 | 29.8 | > 100 | > 100 | > 100 | 51.2 | > 100 | 11.2 | 51.9 | 11.3 | 31.8
5 | COc1cc2c3c(n(CCCN(C)CCO)c(=O)c2cc1OC)-c1cc2c(cc1C3=O)OCO2 | 0.839 | > 24.6 | 1.7 | 26.5 | 6.79 | > 100 | > 62.6 | > 100 | > 22.1 | > 100 | 11.4 | 45.7 | 1.17 | > 100 | 1.89 | > 100 | > 100 | > 100 | 27.4 | > 73.2
6 | Cn1cc(S(=O)(=O)N2CCC3=Cc4c(cnn4-c4ccc(F)cc4)C[C@]3(C(=O)c3cc(C(F)(F)F)ccn3)C2)cn1 | > 100 | > 100 | 81.1 | > 100 | > 100 | > 100 | > 100 | > 100 | > 100 | > 100 | 75.8 | > 100 | 43 | > 100 | > 100 | > 100 | 88.2 | > 100 | 5.19 | > 100
7 | NCCCOc1cc2ccccc2cc1C(=O)NCCCOc1cc2ccccc2cc1C(=O)Nc1ccc(Cl)cc1O | 0.598 | 2.3 | 0.477 | 1.11 | 0.658 | 2.32 | 1.23 | 2.59 | 0.904 | 3.17 | 0.288 | 0.983 | 0.34 | 1.14 | 0.202 | 0.387 | 1.21 | 2.91 | 0.24 | 0.928
8 | NCCCOc1cc(Cl)ccc1NC(=O)c1cc2ccccc2cc1OCCCN | 1.51 | 3.03 | 1.22 | 2.62 | 1.5 | 3.2 | 2.02 | 3.69 | 1.29 | 2.63 | 1.48 | 2.91 | 1.26 | 2.59 | 1.68 | 3.21 | 1.58 | 3.19 | 1.24 | 2.54
9 | Cn1cc(-c2csc(-c3cn(C)c4ccc(F)cc34)n2)c2cnccc21 | 1.94 | 3.58 | 2.05 | 4.26 | 1.68 | 3.27 | 1.8 | 3.26 | 1.93 | 3.79 | 1.79 | 3.36 | 1.92 | 3.49 | 1.97 | 3.71 | 1.79 | 3.38 | 1.61 | 3.05
10 | CCc1nc(Cl)c(Cl)c(Cl)n1 |  | > 100 |  | > 100 |  | > 100 |  | > 100 |  | > 100 |  | > 100 |  | > 100 |  | > 100 |  | > 100 |  | > 100
11 | COc1cc(/C=C/C(=O)C(C(=O)/C=C/c2ccc(OC(=O)CCNC34CC5CC(CC(C5)C3)C4)c(OC)c2)C(=O)CCNC23CC4CC(CC(C4)C2)C3)ccc1OC(=O)CCNC12CC3CC(CC(C3)C1)C2 (centres undefined) | 5.02 | > 100 | 3.21 | 12.5 | 3.21 | 7.51 | 3.45 | 14 | 2.7 | 10.9 | 2.28 | 5.96 | 9.12 | > 100 | 2.98 | 10.2 | 3.53 | > 100 | 1.96 | 5.17
12 | C[P+](C)(C)c1ccccc1 |  | > 100 |  | > 100 |  | > 100 |  | > 100 |  | > 100 |  | > 100 |  | > 100 |  | > 100 |  | > 100 |  | > 100
13 | CN1C(NNC(=O)c2cccnc2)=NS(=O)(=O)c2cc(Cl)ccc21 | > 100 | > 100 | > 100 | > 100 | > 100 | > 100 | > 100 | > 100 | > 100 | > 100 | > 100 | > 100 | > 100 | > 100 | > 100 | > 100 | > 100 | > 100 | > 100 | > 100
14 | COc1ccc(-c2nn(-c3cccc(Cl)c3)cc2-c2nc(N)[nH]c(=O)c2C#N)cc1 | 5.44 | 46.2 | 6.23 | 70.3 | 5.07 | > 100 | 5.69 | 47.3 | 5.86 | 35.4 | 3.84 | 15.2 | 10.1 | 26.2 | 6 | 27.7 | 3.94 | 15.8 | 4.51 | 22.4
15 | O=[N+]([O-])c1ccc(Sc2c3ccccc3nc3ccccc23)cn1 |  | > 47.8 |  | > 100 |  | 28.8 |  | 31.8 |  | 52.4 |  | 95.1 |  | > 65.7 |  | > 100 |  | 48.1 |  | 60.3
16 | C1COCCSC2=C(SCCO1)SC(=C1SC3=C(SCCOCCOCCS3)S1)S2 |  | > 100 |  | > 100 |  | > 100 |  | > 100 |  | > 100 |  | > 100 |  | > 100 |  | > 100 |  | > 100 |  | > 100
17 | Oc1ccc(Oc2cnc3ccccc3n2)cc1 | > 100 | > 100 | > 100 | > 100 | > 100 | > 100 | > 100 | > 100 | 50.3 | > 100 | 45 | > 100 | > 100 | > 100 | > 100 | > 100 | > 100 | > 100 | 34.3 | > 100
18 | O=C(N/N=C/c1ccc(O)cc1O)c1cccnc1 | 5.92 | > 100 | 4.58 | 84.3 | 0.614 | > 100 | 3.33 | 22.5 | 2.22 | 59.4 | 3.62 | > 100 | 13.4 | > 100 | 1.18 | > 100 | 13.5 | 60.8 | 3.74 | > 100
19 | NCCCn1c2c(c3ccccc3c1=O)C(=O)c1ccccc1-2 |  | 0.977 | 0.143 | 1.74 | 0.0762 | 1.38 | 0.544 | 2.19 | 0.498 | 8.55 | 0.124 | 2.65 | 0.0875 | 0.64 | 0.0647 | 9.22 | 4.31 | 12.5 | 1.22 | 6.68

From PubChem BioAssay (NCI)
